Source: PubChem BioAssay (NCI)
“And” between values parts separate entries of the source, which are not always exact repeats. Equal entries are not always repeated.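 Values below derive from 48-hour exposures of cells grown in 96-well plates, with endpoints linearly interpolated between the two concentrations bracketing the appropriate inhibition level. At the GI50, growth is halved. At the TGI there is no net growth.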 Where a SMILES comes first, the peptide text is derived from it. [ ]: non-standard residue; d: D form. The star is where a group is joined. ξ: configuration not given here. dIva = CC[C@@](C)(N)C(=O)O; Aib = CC(C)(N)C(=O)O; ξP = O=C(O)C1CCCN1; βAla = NCCC(=O)O; X5 = OCN*

Assays:
Assay in all cases: growth of human tumour cells (NCI), 48 h
NCI-H460 lung = system: NCI-H460 lung
A498 renal = system: A498 renal
HL-60(TB) leukemia = system: HL-60(TB) leukemia
SK-OV-3 ovarian = system: SK-OV-3 ovarian
SF-268 CNS = system: SF-268 CNS
SK-MEL-2 melanoma = system: SK-MEL-2 melanoma
HCC-2998 colon = system: HCC-2998 colon
SK-MEL-28 melanoma = system: SK-MEL-28 melanoma
LOX IMVI melanoma = system: LOX IMVI melanoma
NCI-H522 lung = system: NCI-H522 lung

SMILES	GI50 (NCI-H460 lung)	TGI (NCI-H460 lung) [µM]	GI50 (A498 renal)	TGI (A498 renal)	GI50 (HL-60(TB) leukemia)	GI50 (SK-OV-3 ovarian)	TGI (SK-OV-3 ovarian)	GI50 (SF-268 CNS)	TGI (SF-268 CNS)	GI50 (SK-MEL-2 melanoma)	GI50 (HCC-2998 colon)	TGI (HCC-2998 colon)	GI50 (SK-MEL-28 melanoma) [µM]	TGI (SK-MEL-28 melanoma) [µM]	GI50 (LOX IMVI melanoma)	TGI (LOX IMVI melanoma)	GI50 (NCI-H522 lung)	TGI (NCI-H522 lung)	TGI (HL-60(TB) leukemia) [µM]	TGI (SK-MEL-2 melanoma)
O=C1C=C(OCC=C(Cl)Cl)C(=O)c2ccccc21	39.3 µM	> 100	> 86.2 µM	> 100 µM	1.39 µM	> 100 µM	> 100 µM	6.57 µM	> 85.7 µM	2.34 µM	> 100 µM	> 100 µM	4.91	23.9	1.09 µM	4.35 µM	0.888 µM	6.24 µM	–	–
CC(C)Cn1cnc2c(SCc3ccccn3)nc(N)nc21	–	> 100	–	> 100 µM	–	–	> 100 µM	–	> 100 µM	–	–	> 100 µM	–	> 100	–	> 100 µM	–	> 100 µM	> 100	> 100 µM
O=C1/C(=C/c2cccc(F)c2)CN(C(=O)C(Cl)Cl)C/C1=C\c1cccc(F)c1	0.318 µM	1.09	0.628 µM	2.05 µM	0.218 µM	0.6 µM	1.79 µM	0.427 µM	1.75 µM	0.343 µM	0.272 µM	0.737 µM	0.243	0.601	0.0385 µM	0.109 µM	0.202 µM	0.522 µM	0.773	1.27 µM
CN1CCN(Cc2ccc(NC(=O)c3cncc(C#Cc4ncc5ccccn45)c3)cc2C(F)(F)F)CC1	1.02 µM	3.86	2.83 µM	5.96 µM	0.845 µM	1.33 µM	4.58 µM	2.06 µM	7.22 µM	0.876 µM	3.37 µM	6.99 µM	2.82	6.19	1.27 µM	4.55 µM	1.43 µM	5.58 µM	2.76	3.82 µM
C=C1C(OCCO)OC2O[C@]3(C)CCC4[C@H](C)CCC1C24OO3 (some centres not stated)	> 100 µM	> 100	> 100 µM	> 100 µM	3.1 µM	> 100 µM	> 100 µM	43.4 µM	> 100 µM	71.1 µM	> 100 µM	> 100 µM	> 100	> 100	4.15 µM	19.2 µM	4.93 µM	19.2 µM	15.6	> 100 µM
CCC(=O)Oc1ccc(/C=N/NC(N)=S)nc1	4.04 µM	46.6	23.3 µM	> 100 µM	2.17 µM	29.7 µM	> 100 µM	3.46 µM	> 100 µM	33 µM	13.6 µM	> 100 µM	34.3	> 100	2.91 µM	> 100 µM	4.58 µM	76.5 µM	> 100	> 100 µM
CCCC(CCC)C(=O)O	> 100 µM	> 20000	> 100 µM	> 100 µM and 4830 µM	> 100 µM	> 20000 µM	> 20000 µM	> 100 µM	> 100 µM and 12000 µM	> 100 µM	> 100 µM	> 100 µM and 16700 µM	–	> 100	> 100 µM	> 20000 µM	> 100 µM	> 20000 µM	> 20000	> 20000 µM
CC[C@@](C)(NC(=O)[C@H](C)NC(=O)CCNC(=O)C(C)(C)NC(=O)[C@H](C)NC(=O)[C@@H]1CCCN1C(=O)[C@@](C)(CC)NC(=O)[C@H](Cc1ccccc1)NC(=O)C1CCCN1C(=O)C(C)(C)NC(=O)C1CCCN1C(=O)C(C)(C)NC(C)=O)C(=O)NCCC(=O)N[C@@H](CC(C)C)C(=O)NC(C)(C)C(=O)NCCC(=O)N[C@@H](CC(C)C)C(=O)NC(C)(C)C(=O)NC(C)(C)C(=O)N[C@@H](CC(C)C)C(=O)NCCC(=O)NCO (some centres not stated) (Ac-[Aib][ξP][Aib][ξP]F[dIva]PA[Aib][βAla]A[dIva][βAla]L[Aib][βAla]L[Aib][Aib]L[βAla]-X5)	0.144 µM	0.381	0.19 µM	0.412 µM	0.318 µM	0.0725 µM	0.266 µM	0.143 µM	0.368 µM	0.202 µM	0.145 µM	0.351 µM	0.187	0.431	0.208 µM	0.428 µM	0.0868 µM	0.304 µM	0.65	0.427 µM
CCN1C(=O)N(CC)C2C1NN=c1s/c(=C\c3cnc(C)n3C)c(=O)n12 (configuration not stated)	2.67 µM	> 100	0.946 µM	5.43 µM	1.61 µM	2.74 µM	> 100 µM	4.1 µM	> 100 µM	1.85 µM	2.65 µM	14.5 µM	5.2	> 100	4.43 µM	> 100 µM	1.33 µM	4.34 µM	4.03	11.3 µM
C=CC(=O)Nc1cccc(Nc2nc(Nc3ccc(N4CCN(C(C)=O)CC4)cc3OC)ncc2C(F)(F)F)c1	3.87 µM and 3.24 µM	> 100	2 µM and 0.802 µM	6.01 µM and 2.94 µM	1.26 µM and 2.26 µM	0.211 µM and 0.291 µM	2.8 µM and 5.29 µM	5.29 µM and 3.19 µM	> 10 µM and 26.2 µM	2.04 µM and 2.23 µM	2.58 µM and 4.62 µM	> 10 µM and 22.4 µM	8.43	> 93.1	2.71 µM and 3.04 µM	> 10 µM and 14.2 µM	0.484 µM and 0.506 µM	6.73 µM and 7.66 µM	> 34	6.83 µM and 10.8 µM
N#CC12CC3(CCC1CCC1(C2)OCCO1)OCCO3 (configuration not stated)	–	> 100	–	> 100 µM	–	–	> 100 µM	–	> 100 µM	–	–	> 100 µM	–	> 100	–	> 100 µM	–	> 100 µM	> 100	> 100 µM
CN(C)c1ccc(/C=N/NC(=O)c2cnc3ccccc3c2)cc1	–	> 100	–	> 100 µM	–	–	> 100 µM	–	53.3 µM	–	–	> 100 µM	–	> 100	–	> 100 µM	–	> 100 µM	> 100	> 100 µM
COc1ccc(S(=O)(=O)N/N=C/CN2C(=O)c3ccccc3C2=O)cc1	–	> 100	–	> 100 µM	–	–	–	–	–	–	–	> 100 µM	–	–	–	> 100 µM	–	> 100 µM	> 100	> 100 µM
Cc1ccc(NC(=O)CC2C(=O)Nc3ccccc3S2(=O)=O)cc1C (configuration not stated)	–	> 100	–	> 100 µM	–	–	–	–	–	–	–	> 100 µM	–	> 100	–	> 100 µM	–	> 100 µM	> 100	> 100 µM
